This note sets out measurements from US4257941A, “Polycyclic nitrogen-containing compounds” (BASF Aktiengesellschaft, priority 1976, dated 1981).

Holding throughout (type): in vivo
The test system of assay [1] is soybeans. The assay can be described thus: Growth of roots and shoots of soybeans, hydroponic (Example 16). As to conditions: for Root dry substance rel. / Root length rel. / Shoot dry substance rel. / Shoot length rel.: control 100. Here is the method:
(§1) Young soybean plants grown in quartz sand were transferred to hydroponic treatment in 4 liter vessels and provided with a sufficient supply of nutrient solution and trace elements. The active ingredients were added (0.25 mg/vessel=0.06 ppm; 1.0 mg/vessel=0.25 ppm; 2.5 mg/vessel=0.63 ppm) at a plant height of approx. 22 cm. The plants were in continuous contact with the active ingredients. […] The roots were also shorter, but the plants had more and stronger shoots.

Assay [2] relates to soybeans. The assay can be described thus: Action on soybeans, hydroponic (Example 17a). As to conditions: for Root dry substance rel. / Root length rel. / Shoot dry substance rel. / Shoot length rel.: control 100. Here is the method: as §1
(§2) The action on soybeans, field beans and sunflowers was examined under the same conditions as in Example 16. The shoots and roots of all 3 crop plants were considerably shortened. Whereas in the shoots the dry substance was reduced commensurately with the shortening, the dry substance in the roots rose (particularly in soybeans) as the concentration increased.

The next assay relates to field beans. Put plainly: Action on field beans, hydroponic (Example 17b). As to conditions: for Root dry substance rel. / Root length rel. / Shoot dry substance rel. / Shoot length rel.: control 100. Here is the method:
as §1, §2

In the next assay the test system is Galium aparine. The assay can be described thus: Herbicidal action (Example 25). As to conditions: read-out: percentage damage. Here is the method: (§3) Paraffined paper cups having a volume of 170 cm^3 were filled with a sandy loam, and the seeds of the test plants sown therein, separated by species. (The species are also listed below.)
(§4) In the first group, treatment was effected immediately after sowing and before germination of the seeds (preemergence treatment=soil treatment). Shallow sown seeds not completely covered with soil came into contact with the active ingredients. In the second group, the plants were treated postemergence (=leaf treatment) at a growth height of from 2 to 8 cm, depending on the rate of growth and shape of the species concerned. The compounds were suspended or emulsified in water and applied with the aid of fine nozzles. The soil and plants were thoroughly sprinkler irrigated for the duration of the experiment. The cups were placed in the greenhouse and kept in the temperature range 12°-25° C. or 18°-35° C., depending on the temperature requirements of the various species. After 2 to 6 weeks the action was assessed visually on a 0 to 100 scale, 0 denoting no damage and 100 denoting plants not germinated or completely destroyed.

The subject of the next assay is Lamium spp. Put plainly: Herbicidal action (Example 25). Here is the method:
as §3, §4

The subject of the next assay is Poa annua. The assay can be described thus: Herbicidal action (Example 25). The conditions noted are these: for pest or weed control at 2000 g/ha / pest or weed control at 4000 g/ha / pest or weed control at 8000 g/ha: Poa annua, read-out: percentage damage; for pest or weed control at 4000 g/ha: 4.0 kg/ha; for pest or weed control at 8000 g/ha: 8.0 kg/ha. Here is the method: as §3, §4

Another assay concerns Solanum nigrum. Put plainly: Herbicidal action (Example 25). Here is the method:
as §3, §4

[3] abbreviates: post-emergence, postemergence, 2.0 kg/ha.
Setting [4] is: pre-emergence, preemergence, 2.0 kg/ha.
Setting [5] is: post-emergence, postemergence, 4.0 kg/ha.
The mark [6] stands for this setting: post-emergence, postemergence, 8.0 kg/ha.
Where [7] appears, read: pre-emergence, preemergence, 4.0 kg/ha.
The mark [8] stands for this setting: pre-emergence, preemergence, 8.0 kg/ha.

Like-named read-outs stand apart in the source and are kept apart here.

With `Clc1ccc(N2N=NC3C4CC(C5N=NC45)C32)cc1` (stereo not drawn) [drawing 387], in the assay with soybeans [1] (0.06 ppm), the Root dry substance is recorded as 13.5 g, the Root length was 28.3 cm, the Shoot dry substance was 39.0 g and the Shoot length is recorded as 70.7 cm. Besides, in the assay with soybeans [1] (0.06 ppm), the “Root dry substance rel.” value is recorded as 97.1, the Root length rel. stood at 93.4, the “Shoot dry substance rel.” value is on record as 94.9 and the Shoot length rel. came to 95.4. Further, in the assay on soybeans [1] (0.25 ppm), the Root dry substance is recorded as 13.2 g, the Root length was found to be 24.7 cm, the Shoot dry substance is recorded as 31.5 g and the Shoot length was found to be 62.3 cm. Besides, in the assay with soybeans [1] (0.25 ppm), the “Root dry substance rel.” value is on record as 95.0, the Root length rel. is given as 81.5, the “Shoot dry substance rel.” value came out at 76.6 and the Shoot length rel. was found to be 84.1. In the assay on soybeans [1] (0.63 ppm), the Root dry substance came to 15.0 g, the Root length stood at 24.7 cm, the Shoot dry substance is 26.6 g and the Shoot length stood at 51.7 cm. For the same compound, in the assay with soybeans [1] (0.63 ppm), the “Root dry substance rel.” value is 107.9, the Root length rel. came out at 81.5, the “Shoot dry substance rel.” value came to 64.7 and the Shoot length rel. is listed as 69.8.
In the assay with soybeans [2] (0.06 ppm), `Brc1ccc(N2N=NC3C4CC(C5N=NC45)C32)cc1` (stereo not drawn) [drawing 388] yielded a Root dry substance of 1.5 g, a Root length of 21.7 cm, a Shoot dry substance of 5.4 g and a Shoot length of 33.0 cm. For the same compound, in the assay on soybeans [2] (0.06 ppm), the “Root dry substance rel.” value is listed as 136.4, the Root length rel. is recorded as 75.6, the “Shoot dry substance rel.” value turned out to be 93.1 and the Shoot length rel. is reported as 89.9. In the assay with soybeans [2] (0.25 ppm), this compound returned a Root dry substance of 1.5 g, a Root length of 20.0 cm, a Shoot dry substance of 4.9 g and a Shoot length of 21.7 cm. Besides, in the assay with soybeans [2] (0.25 ppm), the “Root dry substance rel.” value was 136.4, the Root length rel. was determined as 69.7, the “Shoot dry substance rel.” value is listed as 84.5 and the Shoot length rel. was determined as 59.1. In the assay on soybeans [2] (0.63 ppm), the Root dry substance worked out at 2.1 g, the Root length was determined as 20.0 cm, the Shoot dry substance is on record as 3.9 g and the Shoot length was 19.0 cm. In the assay with soybeans [2] (0.63 ppm), the “Root dry substance rel.” value turned out to be 190.9, the Root length rel. is 69.7, the “Shoot dry substance rel.” value is given as 67.2 and the Shoot length rel. is listed as 51.8.
In the assay on field beans (0.06 ppm), `Brc1ccc(N2N=NC3C4CC(C5N=NC45)C32)cc1` (stereo not drawn) [drawing 389] came in with a Root dry substance of 3.8 g, a Root length of 28.3 cm, a Shoot dry substance of 14.5 g and a Shoot length of 69.7 cm. Further, in the assay on field beans (0.06 ppm), the “Root dry substance rel.” value came out at 63.3, the Root length rel. turned out to be 68.5, the “Shoot dry substance rel.” value is recorded as 85.8 and the Shoot length rel. is recorded as 95.5. In the assay with field beans (0.25 ppm), the Root dry substance was 5.3 g, the Root length is given as 28.3 cm, the Shoot dry substance is listed as 14.5 g and the Shoot length was found to be 67.3 cm. Moreover, in the assay on field beans (0.25 ppm), the “Root dry substance rel.” value is on record as 85.5, the Root length rel. was found to be 68.5, the “Shoot dry substance rel.” value was determined as 85.8 and the Shoot length rel. worked out at 92.2. Moreover, in the assay with field beans (0.63 ppm), the Root dry substance was 6.0 g, the Root length is on record as 25.0 cm, the Shoot dry substance came to 13.0 g and the Shoot length came to 56.7 cm. Also, in the assay with field beans (0.63 ppm), the “Root dry substance rel.” value was found to be 96.8, the Root length rel. turned out to be 60.5, the “Shoot dry substance rel.” value amounted to 76.9 and the Shoot length rel. amounted to 77.7.
`C=CCN(CC=C)C(=O)CCl` [drawing 428]: the pest or weed control at 2000 g/ha in the assay on Galium aparine (post-emergence) was 5%; in the assay on Galium aparine (pre-emergence), 70%; with Poa annua (setting [3]), 35%; in the assay with Poa annua (setting [4]) it was 95%. For the same compound, the pest or weed control at 4000 g/ha is 5% in the assay with Galium aparine (post-emergence); 80% in the assay with Galium aparine (pre-emergence); 35% in the assay on Poa annua (post-emergence, postemergence); 98% in the assay on Poa annua (pre-emergence, preemergence). For the same compound, the pest or weed control at 8000 g/ha with Galium aparine (post-emergence) is 5%; with Galium aparine (pre-emergence), 90%; in the assay with Poa annua (post-emergence, postemergence) it was 40%; in the assay with Poa annua (pre-emergence, preemergence) it was 100%. In addition, the percentage damage was determined as 0 percentage damage in the assay on Lamium spp. (postemergence, 2.0 kg/ha); 10 percentage damage in the assay on Lamium spp. (postemergence, 4.0 kg/ha); 20 percentage damage in the assay on Lamium spp. (postemergence, 8.0 kg/ha); 25 percentage damage with Lamium spp. (preemergence, 2.0 kg/ha); 60 percentage damage in the assay with Lamium spp. (preemergence, 4.0 kg/ha); 85 percentage damage with Lamium spp. (preemergence, 8.0 kg/ha). The percentage damage in the assay on Solanum nigrum (postemergence, 2.0 kg/ha) is recorded as 10 percentage damage; in the assay with Solanum nigrum (postemergence, 4.0 kg/ha) it was 10 percentage damage; with Solanum nigrum (postemergence, 8.0 kg/ha) it was 20 percentage damage; in the assay with Solanum nigrum (preemergence, 2.0 kg/ha), 0 percentage damage; with Solanum nigrum (preemergence, 4.0 kg/ha), 15 percentage damage; in the assay on Solanum nigrum (preemergence, 8.0 kg/ha), 25 percentage damage.
On to `c1ccc(N2N=NC3C4CC(C5N=NC45)C32)cc1` (stereo not drawn) [drawing 431], for which the pest or weed control at 2000 g/ha in the assay on Galium aparine (setting [3]) amounted to 10%; in the assay on Galium aparine (setting [4]) it was 80%; in the assay on Poa annua (setting [3]) it was 35%. The pest or weed control at 4000 g/ha in the assay with Galium aparine (setting [5]) amounted to 15%; with Galium aparine (setting [7]) it was 100%; in the assay on Poa annua (post-emergence, postemergence) it was 40%; in the assay with Poa annua (pre-emergence, preemergence), 100%. Further, the pest or weed control at 8000 g/ha is 20% in the assay with Galium aparine (setting [6]); 100% in the assay with Galium aparine (setting [8]); 50% in the assay with Poa annua (post-emergence, postemergence); 100% in the assay on Poa annua (pre-emergence, preemergence). Further, the percentage damage with Lamium spp. (postemergence, 2.0 kg/ha) is given as 60 percentage damage; in the assay with Lamium spp. (postemergence, 4.0 kg/ha), 90 percentage damage; in the assay on Lamium spp. (postemergence, 8.0 kg/ha) it was 90 percentage damage; in the assay on Lamium spp. (preemergence, 2.0 kg/ha) it was 95 percentage damage; in the assay with Lamium spp. (preemergence, 4.0 kg/ha), 95 percentage damage; in the assay on Lamium spp. (preemergence, 8.0 kg/ha), 95 percentage damage. Also, the percentage damage in the assay on Poa annua (preemergence, 2.0 kg/ha) was found to be 100 percentage damage; with Solanum nigrum (postemergence, 2.0 kg/ha), 85 percentage damage; with Solanum nigrum (postemergence, 4.0 kg/ha), 100 percentage damage; in the assay on Solanum nigrum (postemergence, 8.0 kg/ha), 100 percentage damage; with Solanum nigrum (preemergence, 2.0 kg/ha), 95 percentage damage; in the assay with Solanum nigrum (preemergence, 4.0 kg/ha), 95 percentage damage. In addition, the percentage damage with Solanum nigrum (preemergence, 8.0 kg/ha) was 95 percentage damage.
For `c1csc(N2N=NC3C4CC(C5N=NC45)C32)n1` (stereo not drawn) [drawing 432], the pest or weed control at 2000 g/ha in the assay on Galium aparine (setting [3]) was 10%; in the assay with Galium aparine (setting [4]) it was 72%; with Poa annua (setting [3]), 38%; in the assay on Poa annua (setting [4]), 80%. Moreover, the pest or weed control at 4000 g/ha in the assay with Galium aparine (setting [5]) came to 18%; in the assay with Galium aparine (setting [7]) it was 98%; in the assay on Poa annua (post-emergence, postemergence), 52%; with Poa annua (pre-emergence, preemergence), 92%. The pest or weed control at 8000 g/ha in the assay with Galium aparine (setting [6]) is 30%; with Galium aparine (setting [8]), 90%; in the assay with Poa annua (post-emergence, postemergence), 68%; in the assay on Poa annua (pre-emergence, preemergence), 95%. For the same compound, the percentage damage in the assay with Lamium spp. (postemergence, 2.0 kg/ha) came to 55 percentage damage; in the assay on Lamium spp. (postemergence, 4.0 kg/ha) it was 60 percentage damage; in the assay on Lamium spp. (postemergence, 8.0 kg/ha) it was 95 percentage damage; with Lamium spp. (preemergence, 2.0 kg/ha), 95 percentage damage; in the assay on Lamium spp. (preemergence, 4.0 kg/ha), 95 percentage damage; in the assay with Lamium spp. (preemergence, 8.0 kg/ha) it was 95 percentage damage. For the same compound, the percentage damage in the assay with Solanum nigrum (postemergence, 2.0 kg/ha) is given as 90 percentage damage; with Solanum nigrum (postemergence, 4.0 kg/ha), 95 percentage damage; with Solanum nigrum (postemergence, 8.0 kg/ha), 100 percentage damage; in the assay with Solanum nigrum (preemergence, 2.0 kg/ha) it was 95 percentage damage; in the assay on Solanum nigrum (preemergence, 4.0 kg/ha), 95 percentage damage; with Solanum nigrum (preemergence, 8.0 kg/ha), 95 percentage damage.
